Results: ChEMBL document CHEMBL1629664, “Oral and parenteral therapeutic options for outpatient urinary infections caused by enterobacteriaceae producing CTX-M extended-spectrum beta-lactamases” (2009)
Converted amounts (≈) assume the structure as drawn. One block for each compound: values may come before it.

Columns and labels:
Type in all cases: functional
Enterobacteriaceae [1] = experiment: Antibacterial activity against beta-lactamase CTX-M ESBL-producing Enterobacteriaceae by twofold dilution method
Enterobacteriaceae [2] = experiment: Antibacterial activity against beta-lactamase CTX-M ESBL-producing Enterobacteriaceae by twofold dilution method in presence of beta-lactamase inhibitor clavulanate
Enterobacteriaceae [3] = experiment: Antibacterial activity against beta-lactamase CTX-M ESBL-producing Enterobacteriaceae assessed as percent susceptible isolates by twofold dilution method in presence of beta-lactamase inhibitor clavulanate
Enterobacteriaceae [4] = experiment: Antibacterial activity against beta-lactamase SHV or TEM ESBL-producing Enterobacteriaceae by twofold dilution method
Enterobacteriaceae [5] = experiment: Antibacterial activity against beta-lactamase SHV or TEM ESBL-producing Enterobacteriaceae by twofold dilution method in presence of beta-lactamase inhibitor clavulanate
Enterobacteriaceae [6] = experiment: Antibacterial activity against beta-lactamase SHV or TEM ESBL-producing Enterobacteriaceae assessed as percent susceptible isolates by twofold dilution method in presence of beta-lactamase inhibitor clavulanate
Enterobacteriaceae [7] = experiment: Antibacterial activity against beta-lactamase CTX-M ESBL-producing Enterobacteriaceae assessed as percent susceptible isolates by twofold dilution method
Enterobacteriaceae [8] = experiment: Antibacterial activity against beta-lactamase SHV or TEM ESBL-producing Enterobacteriaceae assessed as percent susceptible isolates by twofold dilution method
Enterobacteriaceae [9] = experiment: Antibacterial activity against beta-lactamase CTX-M ESBL-producing Enterobacteriaceae by broth microdilution method
Enterobacteriaceae [10] = experiment: Antibacterial activity against beta-lactamase CTX-M ESBL-producing Enterobacteriaceae assessed as percent susceptible isolates by broth microdilution method
Enterobacteriaceae [11] = experiment: Antibacterial activity against beta-lactamase SHV or TEM ESBL-producing Enterobacteriaceae by broth microdilution method
Enterobacteriaceae [12] = experiment: Antibacterial activity against beta-lactamase SHV or TEM ESBL-producing Enterobacteriaceae assessed as percent susceptible isolates by broth microdilution method
Escherichia coli [13] = experiment: Antibacterial activity against beta-lactamase ESBL-producing Escherichia coli assessed as percent susceptible isolates by broth microdilution method
Proteus mirabilis = experiment: Antibacterial activity against beta-lactamase ESBL-producing Proteus mirabilis assessed as percent susceptible isolates by broth microdilution method
Klebsiella sp. = experiment: Antibacterial activity against beta-lactamase ESBL-producing Klebsiella sp. assessed as percent susceptible isolates by broth microdilution method
Escherichia coli [14] = experiment: Antibacterial activity against beta-lactamase ESBL-producing Escherichia coli by broth microdilution method
Enterobacteriaceae [15] = experiment: Antibacterial activity against beta-lactamase CTX-M ESBL-producing Enterobacteriaceae by agar dilution method
Enterobacteriaceae [16] = experiment: Antibacterial activity against beta-lactamase CTX-M ESBL-producing Enterobacteriaceae assessed as percent susceptible isolates by agar dilution method
Enterobacteriaceae [17] = experiment: Antibacterial activity against beta-lactamase SHV or TEM ESBL-producing Enterobacteriaceae by agar dilution method
Enterobacteriaceae [18] = experiment: Antibacterial activity against beta-lactamase SHV or TEM ESBL-producing Enterobacteriaceae assessed as percent susceptible isolates by agar dilution method

SMILES: C=CC1=C(C(=O)O)N2C(=O)[C@@H](NC(=O)/C(=N\O)c3csc(N)n3)[C@H]2SC1 [CEFDINIR]
MIC50 (Enterobacteriaceae [1]): 16 µg/mL (≈ 40.5 µM) | MIC90 (Enterobacteriaceae [1]): 16 µg/mL (≈ 40.5 µM) | Activity (Enterobacteriaceae [7]): 0% | MIC50 (Enterobacteriaceae [4]): 4 µg/mL (≈ 10.1 µM) | MIC90 (Enterobacteriaceae [4]): 16 µg/mL (≈ 40.5 µM) | Activity (Enterobacteriaceae [8]): 0%

SMILES: O=C(O)c1cn(C2CC2)c2cc(N3CCNCC3)c(F)cc2c1=O [CIPROFLOXACIN]
MIC50 (Enterobacteriaceae [9]): 32 µg/mL (≈ 96.6 µM) | MIC90 (Enterobacteriaceae [9]): 32 µg/mL (≈ 96.6 µM) | Activity (Enterobacteriaceae [10]): 4.3% | MIC50 (Enterobacteriaceae [11]): 32 µg/mL (≈ 96.6 µM) | MIC90 (Enterobacteriaceae [11]): 32 µg/mL (≈ 96.6 µM) | Activity (Enterobacteriaceae [12]): 36.4%

SMILES: C[C@@H]1O[C@@H]1P(=O)(O)O [FOSFOMYCIN]
MIC50 (Enterobacteriaceae [15]): 0.5 µg/mL (≈ 3.62 µM) | MIC90 (Enterobacteriaceae [15]): 64 µg/mL (≈ 464 µM) | Activity (Enterobacteriaceae [16]): 91.3% | MIC50 (Enterobacteriaceae [17]): 4 µg/mL (≈ 29 µM) | MIC90 (Enterobacteriaceae [17]): 8 µg/mL (≈ 57.9 µM) | Activity (Enterobacteriaceae [18]): 100%

SMILES: O=C1CN(/N=C/c2ccc([N+](=O)[O-])o2)C(=O)N1 [NITROFURANTOIN]
MIC50 (Enterobacteriaceae [9]): 16 µg/mL (≈ 67.2 µM) | MIC90 (Enterobacteriaceae [9]): 64 µg/mL (≈ 269 µM) | Activity (Enterobacteriaceae [10]): 73.9% | MIC50 (Enterobacteriaceae [11]): 64 µg/mL (≈ 269 µM) | MIC90 (Enterobacteriaceae [11]): 64 µg/mL (≈ 269 µM) | Activity (Enterobacteriaceae [12]): 45.5%

Second part, led by results:

MIC50 (Enterobacteriaceae [1]): 4 µg/mL (≈ 10.9 µM) | MIC90 (Enterobacteriaceae [1]): 4 µg/mL (≈ 10.9 µM) | MIC50 (Enterobacteriaceae [2]): 32 µg/mL | MIC90 (Enterobacteriaceae [2]): 32 µg/mL | MIC50 (Enterobacteriaceae [4]): 4 µg/mL (≈ 10.9 µM) | MIC90 (Enterobacteriaceae [4]): 4 µg/mL (≈ 10.9 µM) | MIC50 (Enterobacteriaceae [5]): 32 µg/mL | MIC90 (Enterobacteriaceae [5]): 32 µg/mL
SMILES: CC1(C)S[C@@H]2[C@H](NC(=O)[C@H](N)c3ccc(O)cc3)C(=O)N2[C@H]1C(=O)O [AMOXICILLIN]
Activity (Enterobacteriaceae [3]): 10.9% | Activity (Enterobacteriaceae [6]): 45.5%

MIC50 (Enterobacteriaceae [9]): 16 µg/mL | MIC90 (Enterobacteriaceae [9]): 16 µg/mL | MIC50 (Enterobacteriaceae [11]): 16 µg/mL | MIC90 (Enterobacteriaceae [11]): 16 µg/mL
SMILES: C[C@H]1c2cccc(O)c2C(=O)C2=C(O)[C@]3(O)C(=O)C(C(N)=O)=C(O)[C@@H](N(C)C)[C@@H]3[C@@H](O)[C@@H]21.O [DOXYCYCLINE]
Activity (Enterobacteriaceae [10]): 10.9% | Activity (Enterobacteriaceae [12]): 18.2%

MIC50 (Enterobacteriaceae [9]): 0.06 µg/mL (≈ 0.126 µM) | MIC90 (Enterobacteriaceae [9]): 0.25 µg/mL (≈ 0.526 µM) | MIC90 (Escherichia coli [14]): 0.06 µg/mL (≈ 0.126 µM) | MIC50 (Enterobacteriaceae [11]): 0.12 µg/mL (≈ 0.252 µM) | MIC90 (Enterobacteriaceae [11]): 1 µg/mL (≈ 2.1 µM)
SMILES: C[C@@H](O)[C@H]1C(=O)N2C(C(=O)O)=C(S[C@@H]3CN[C@H](C(=O)Nc4cccc(C(=O)O)c4)C3)[C@H](C)[C@H]12 [ERTAPENEM]
Activity (Enterobacteriaceae [10]): 100% | Activity (Escherichia coli [13]): 100% | Activity (Proteus mirabilis): 100% | Activity (Klebsiella sp.): 100% | Activity (Enterobacteriaceae [12]): 100%
